# Measured values as given in US20140274782A1, “AFFINITY REAGENTS AND METHODS FOR DETECTION, PURIFICATION, AND PROTEOMIC ANALYSIS OF METHYLATED PROTEINS” (The Board of Trustees of the Leland Stanford Junior …, priority 2013, published 2014).
# Legend:
# [1] = tested on: 3×MBT domain of L3MBTL1; experiment: SILAC proteomic pull-down 3×MBT vs 3×MBTD355N from 293T nuclear extract, LC-MS/MS; type: binding, human; settings: for Protein Ratio 3xMBT/D355N: SILAC ratio, 293T nuclear extract pull-down, * = protein identified in only one labeling experiment
# Method: Protein pull-downs were performed as described above using 600 μg of nuclear extract prepared with isotopic labels as indicated. After eluting with glutathione, 3×MBT domain was removed by dialysis into high salt and rebinding to GSH-sepharose. Bound proteins were separated by SDS-PAGE and analyzed by in-gel tryptic digest followed by LC-MS/MS. Peptides were identified using MaxQuant version 1.2.2.5 (Cox and Mann (2008) Nat. Biotechnol. 26, 1367-1372) and candidate methylated peptides were verified by manual inspection.
# For stable isotope labeling by amino acids in cell culture (SILAC) experiments HEK 293T cells were grown for at least six doublings in DMEM for SILAC supplemented with 10% dialyzed fetal bovine serum (FBS), 230 mg/L L-proline and either 100 mg/L each of L-lysine and L-arginine (“light” medium), D4-L-lysine and ^13C6-L-arginine (“medium” media), or ^13C6^15N2-L-lysine and ^13C6^15N4-L-arginine (Thermo Scientific). Heavy methyl labeling used DMEM without L-Methionine or L-Cysteine supplemented with D3^13C-L-Methionine (Sigma), L-Cysteine (Sigma) and 10% dialyzed FBS.
# 600 μg of nuclear extract was incubated overnight rotating at 4° C. with 20 μl packed 3×MBT or 3×MBTD355N beads in a total volume of 250 μL with binding buffer. Supernatant was removed and saved for use as a loading control. Beads were washed 4×5 minutes with 0.5 mL binding buffer. Protein was eluted by incubating in 20 μL elution buffer (10 mg/mL glutathione in 50 mM Tris pH 8.0) rotating at 4° C. for four hours. Elutions from 3×MBT and 3×MBTD355N were combined and dialyzed overnight at 4° C. against 10,000× volume of dissociation buffer (50 mM Tris pH 7.5, 750 mM NaCl) in a 0.1 mL Slide-A-Lyzer MINI Dialysis Device with 3.5K molecular weight cutoff (Thermo Scientific). 80 μL of GSH-Sepharose was prepared by washing briefly three times with 0.5 mL binding buffer. Dialyzed proteins were added to the GSH-Sepharose and incubated 4 hours rotating at 4° C. to deplete the GST-fusion domains. Supernatant was transferred to a fresh 1.5 mL tube. Proteins were separated by SDS-PAGE on a 10% polyacrylamide gel and stained using SilverQuest Silver Staining Kit (Life Technologies). Lanes were excised, residual 3×MBT band was removed, and gel was diced into 0.5 mm cubes. Gel pieces were destained and processed by in-gel digestion (Carlson et al. (2011) Science Signaling 4) with sequencing grade trypsin (Promega) and the peptide sample was dried completely in a vacuum centrifuge. To prepare a loading control, 2 μL each of light and heavy nuclear extract were combined, 6 μL of 8M urea was added, proteins were denatured by adding 2 μL of 100 mM dithiothreitol in digest buffer (50 mM ammonium bicarbonate) and heating to 60° C. for 1 hour, cysteine was alkylated by adding 2.2 μL 100 mg/mL iodoacetamide in digest buffer and incubating 1 hour at room temperature in darkness, and proteins were digested by adding 80 μL trypsin (Promega) at 12.5 ng/μL in digest buffer and incubating overnight at room temperature in darkness. Digestion was stopped by adding 10 μL of 10% formic acid.
# Each experiment consisted of two sets of pull-downs: “forward” labeling with 3×MBT incubated with light nuclear extract and 3×MBTD355N with medium extract, and a second “reverse” labeling experiment with the label conditions swapped. Proteins were included in the results if they were quantified in both labeling directions. To determine reproducibility the entire experiment including the label swap was duplicated using independent protein preparations and a mass spectrometer at another institution.
# For 3×MBT pull-down experiment #1 the gel lane was processed and peptides were loaded off-line onto a first dimension trap column (Waters Xbridge, C18, 10 μm particle size, 100 Å pore size, 5 cm packing length, 150 μm column i.d.). […]
# [2] = tested on: H3K9me2; experiment: Western blot of 293T whole cell extracts ±UNC0638; type: cell-based; settings: 293T cells
# Method: For UNC0638 treatments cells were treated for 24 hours with UNC0638 at 2.5 μM or DMSO vehicle control. One experiment treated cells in light media with UNC0638, the other treated cells in heavy media. Both experiments included cells in medium media treated with DMSO for negative control pull-down with 3×MBTD355N.
# [3] = target: T1, G9a and GLP (Homo sapiens, UniProt Q96KQ7+Q9H9B1); experiment: Triple SILAC pull-down after UNC0638 treatment of 293T cells, DMSO/UNC0638 ratio of protein captured by 3×MBT; type: cell-based; settings: for Relative to UNC0638 UNC Heavy: UNC0638 in heavy SILAC media; for Relative to UNC0638 UNC Light: UNC0638 in light SILAC media; for Relative to UNC0638 Average: average of UNC Light and UNC Heavy experiments;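 as to all read-outs here: mass spectrometry (Q-Exactive) SILAC quantitation, DMSO/UNC0638 ratio computed after subtracting 3×MBTD355N mutant pull-down background, only proteins with at least twofold 3×MBT over mutant signal considered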
# T1 construct: endogenous in cells; host or cells: HEK 293T
# T1 sequence (Q96KQ7 2-1210 limits assumed): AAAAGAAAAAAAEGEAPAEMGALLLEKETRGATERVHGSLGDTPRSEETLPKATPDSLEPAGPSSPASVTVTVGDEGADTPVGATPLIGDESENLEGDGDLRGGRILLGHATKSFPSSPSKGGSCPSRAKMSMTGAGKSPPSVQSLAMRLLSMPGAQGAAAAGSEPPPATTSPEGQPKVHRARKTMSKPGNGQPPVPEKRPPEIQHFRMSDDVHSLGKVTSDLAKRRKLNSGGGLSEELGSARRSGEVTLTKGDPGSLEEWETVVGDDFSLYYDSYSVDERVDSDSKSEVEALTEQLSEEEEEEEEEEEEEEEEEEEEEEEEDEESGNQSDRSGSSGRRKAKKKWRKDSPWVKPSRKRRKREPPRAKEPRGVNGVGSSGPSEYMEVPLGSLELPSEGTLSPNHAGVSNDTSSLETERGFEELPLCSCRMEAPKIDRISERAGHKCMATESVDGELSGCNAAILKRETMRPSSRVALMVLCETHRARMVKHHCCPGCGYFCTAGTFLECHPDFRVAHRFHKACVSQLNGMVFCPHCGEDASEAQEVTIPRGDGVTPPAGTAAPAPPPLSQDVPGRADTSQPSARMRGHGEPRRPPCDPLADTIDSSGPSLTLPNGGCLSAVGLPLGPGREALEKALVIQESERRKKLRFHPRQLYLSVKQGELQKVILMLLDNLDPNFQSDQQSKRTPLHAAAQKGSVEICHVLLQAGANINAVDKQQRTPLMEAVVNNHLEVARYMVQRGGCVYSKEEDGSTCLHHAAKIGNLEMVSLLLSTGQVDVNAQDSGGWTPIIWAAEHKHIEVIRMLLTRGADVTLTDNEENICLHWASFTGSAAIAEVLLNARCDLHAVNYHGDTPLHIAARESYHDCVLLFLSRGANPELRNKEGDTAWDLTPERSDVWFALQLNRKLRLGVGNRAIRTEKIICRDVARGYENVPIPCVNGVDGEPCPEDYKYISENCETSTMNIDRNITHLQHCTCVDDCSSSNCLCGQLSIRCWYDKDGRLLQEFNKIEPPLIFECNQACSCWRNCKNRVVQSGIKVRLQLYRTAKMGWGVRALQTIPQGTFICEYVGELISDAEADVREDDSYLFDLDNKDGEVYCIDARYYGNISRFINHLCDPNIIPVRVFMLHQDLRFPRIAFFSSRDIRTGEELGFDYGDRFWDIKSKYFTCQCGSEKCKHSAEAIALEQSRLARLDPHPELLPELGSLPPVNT
# T1 sequence (Q9H9B1 2-1298 limits assumed): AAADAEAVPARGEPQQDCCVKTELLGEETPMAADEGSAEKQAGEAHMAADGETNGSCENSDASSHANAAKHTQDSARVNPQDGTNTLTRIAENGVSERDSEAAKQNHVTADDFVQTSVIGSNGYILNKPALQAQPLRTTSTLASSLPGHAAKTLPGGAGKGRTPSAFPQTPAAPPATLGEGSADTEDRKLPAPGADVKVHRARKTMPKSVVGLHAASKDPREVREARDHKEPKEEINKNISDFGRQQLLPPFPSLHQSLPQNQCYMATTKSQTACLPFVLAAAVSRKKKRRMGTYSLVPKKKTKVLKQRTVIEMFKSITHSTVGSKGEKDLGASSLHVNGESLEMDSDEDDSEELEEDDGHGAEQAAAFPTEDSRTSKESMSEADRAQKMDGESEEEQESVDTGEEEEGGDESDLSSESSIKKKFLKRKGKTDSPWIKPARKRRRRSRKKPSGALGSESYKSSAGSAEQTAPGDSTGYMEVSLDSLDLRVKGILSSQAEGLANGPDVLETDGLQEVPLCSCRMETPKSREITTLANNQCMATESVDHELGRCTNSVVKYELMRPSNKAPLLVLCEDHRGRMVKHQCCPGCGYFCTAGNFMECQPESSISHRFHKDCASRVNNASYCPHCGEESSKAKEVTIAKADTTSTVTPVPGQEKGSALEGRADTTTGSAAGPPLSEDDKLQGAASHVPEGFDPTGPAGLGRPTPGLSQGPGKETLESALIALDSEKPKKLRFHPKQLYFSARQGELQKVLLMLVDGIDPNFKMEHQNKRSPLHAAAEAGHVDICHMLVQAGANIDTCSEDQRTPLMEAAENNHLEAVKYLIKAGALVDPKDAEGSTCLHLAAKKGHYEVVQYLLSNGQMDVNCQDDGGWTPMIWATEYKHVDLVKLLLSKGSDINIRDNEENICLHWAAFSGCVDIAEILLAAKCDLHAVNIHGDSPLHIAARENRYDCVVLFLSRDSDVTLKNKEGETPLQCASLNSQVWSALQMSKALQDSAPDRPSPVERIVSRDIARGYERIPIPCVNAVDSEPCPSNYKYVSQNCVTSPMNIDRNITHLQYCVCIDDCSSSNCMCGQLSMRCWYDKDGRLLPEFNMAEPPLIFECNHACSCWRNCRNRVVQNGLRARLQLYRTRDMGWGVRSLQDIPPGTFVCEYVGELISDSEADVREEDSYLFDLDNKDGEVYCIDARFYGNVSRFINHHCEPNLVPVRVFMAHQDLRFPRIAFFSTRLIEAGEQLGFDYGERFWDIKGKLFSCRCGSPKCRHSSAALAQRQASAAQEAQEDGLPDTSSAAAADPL
# [4] = tested on: 3×MBT domain of L3MBTL1; experiment: Triple SILAC pull-down, 3xMBT/3xMBTD355N ratio (cytoplasmic, nuclear and chromatin fractions of 293T cells); type: binding, human; settings: for 3xMBT/D355N UNC Heavy: experiment with UNC0638 in heavy SILAC media; for 3xMBT/D355N UNC Light: experiment with UNC0638 in light SILAC media;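 as to all read-outs here: proteins quantified with MaxQuant, requiring at least two unique peptides and quantification in both label directions, normalized to the mean of proteins from a digested loading control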
# [5] = SILAC ratio, pull-down 3xMBT vs 3xMBTD355N
# [6] = SILAC ratio DMSO/UNC0638 of protein pulled down with 3xMBT
# [7] = SILAC ratio 3xMBT vs 3xMBTD355N pull-down, 293T cells, all values in log base 2
# [8] = SILAC ratio DMSO relative to UNC0638, pull-down with 3xMBT, all values in log base 2
compound,measurement,setting,value
hn RNP A/B: protein with methylated lysine identified in 3xMBT pull-down,Protein Ratio 3xMBT/D355N,[1],13.4
"COc1cc2c(NC3CCN(C(C)C)CC3)nc(C3CCCCC3)nc2cc1OCCCN1CCCC1 [UNC0638, reference compound]",levels of the G9a target H3K9me2 in treated cells,[2],reduced
same,number of candidate G9a/GLP substrates showing reduced association with 3×MBT in response to treatment,"[3]; 293T cells, 2.5 μM, 24 hours",23
3×MBTD355N: 3×MBT with mutation of aspartate 355 to asparagine; abrogates binding to methyl-lysine; negative control [reference compound],number of the 544 identified proteins enriched at 2-fold versus the other domain,[1]; SILAC,3
same,percentage of the 544 identified proteins enriched at 2-fold versus the other domain,[1]; SILAC,0.6%
TUBB2C: protein with methylated lysine identified in 3xMBT pull-down,Protein Ratio 3xMBT/D355N,[1],2.1
hnRNP K: protein with methylated lysine identified in 3xMBT pull-down,Protein Ratio 3xMBT/D355N,[1],8.0
TFG,3xMBT/D355N UNC Heavy,[4]; [5],4.21 log base 2
same,3xMBT/D355N UNC Light,[4]; [5],4.03 log base 2
same,Relative to UNC0638 UNC Heavy,[3]; [6],0.16 log base 2
same,Relative to UNC0638 UNC Light,[3]; [6],0.22 log base 2
same,Relative to UNC0638 Average,[3],0.19 log base 2
NBN,3xMBT/D355N UNC Heavy,[4]; [7],1.68 log base 2
same,3xMBT/D355N UNC Light,[4]; [7],1.52 log base 2
same,Relative to UNC0638 UNC Heavy,[3]; [8],−0.14 log base 2
same,Relative to UNC0638 UNC Light,[3]; [8],−0.46 log base 2
same,Relative to UNC0638 Average,[3]; all values in log base 2,−0.30 log base 2
